Consider two compounds from patent US8080523B2 (The Regents of the University of California, priority 2004, dated 2011).

What all share (format): cell-based
In one assay the target is T1, Kv1.1 (Mus musculus, UniProt P16388).
T1 construct: expressed in transfected cells
Nature of the assay: Patch-clamp block of Kv1.1 channels stably expressed in L929 cells. As for the experimental part: (§1) Kds were determined from the dose-response curves shown using Microcal Origin software.
(Patch clamp records ionic current or voltage across a cell membrane.)

Assay [1] has as its system Kv1.2. Kind of assay: Ion channel specificity panel: Kv1.2. The source says:
(§2) Margatoxin, a peptide from scorpion venom that has been touted as a specific Kv1.3 inhibitor (Koo et al., 1997; Lin et al., 1993; Middleton et al., 2003) was also not specific.

For a further assay, the target named is Kv1.5 (Homo sapiens, UniProt P22460). Nature of the assay: Ion channel specificity panel: Kv1.5.
From the text: as §2

For the next assay, the target named is T2, Kv1.3 (Mus musculus, UniProt P16390).
T2 construct: expressed in transfected cells
Nature of the assay: Patch-clamp block of Kv1.3 channels stably expressed in L929 cells. The conditions noted are these: cloned channel, dose-response curves. On the procedure:
as §1

Assay [2] addresses Kv1.2 (UniProt P63142). Kind of assay: Ion channel specificity panel: Kv1.2. The conditions noted are these: read-out: Kd on Kv1.2.
From the text: as §2

A further assay concerns the target Kv1.6 (Homo sapiens, UniProt P17658). Kind of assay: Ion channel specificity panel: Kv1.6.
From the text: as §2

The target of the next assay is Kv3.2. Kind of assay: Ion channel specificity panel: Kv3.2.
From the text: as §2

Positions of bridges follow the written chain, without caps; N, C: chain ends. Residues, ends and D or L forms follow the SMILES beside them.

T1 sequence (P16388 whole entry): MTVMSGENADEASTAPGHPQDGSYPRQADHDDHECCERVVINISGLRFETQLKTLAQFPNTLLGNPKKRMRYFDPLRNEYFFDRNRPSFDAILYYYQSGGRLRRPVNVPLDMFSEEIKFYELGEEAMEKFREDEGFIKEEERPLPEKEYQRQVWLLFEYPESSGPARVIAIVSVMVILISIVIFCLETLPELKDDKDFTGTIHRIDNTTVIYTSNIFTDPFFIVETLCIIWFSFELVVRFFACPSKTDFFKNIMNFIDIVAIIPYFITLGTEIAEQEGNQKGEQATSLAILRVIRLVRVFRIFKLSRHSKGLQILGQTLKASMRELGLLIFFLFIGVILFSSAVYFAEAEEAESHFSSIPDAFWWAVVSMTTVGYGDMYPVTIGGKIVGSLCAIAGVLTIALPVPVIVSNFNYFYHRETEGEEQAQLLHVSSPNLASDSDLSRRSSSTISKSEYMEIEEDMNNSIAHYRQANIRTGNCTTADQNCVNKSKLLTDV
Kv1.6, sequence (P17658 whole entry): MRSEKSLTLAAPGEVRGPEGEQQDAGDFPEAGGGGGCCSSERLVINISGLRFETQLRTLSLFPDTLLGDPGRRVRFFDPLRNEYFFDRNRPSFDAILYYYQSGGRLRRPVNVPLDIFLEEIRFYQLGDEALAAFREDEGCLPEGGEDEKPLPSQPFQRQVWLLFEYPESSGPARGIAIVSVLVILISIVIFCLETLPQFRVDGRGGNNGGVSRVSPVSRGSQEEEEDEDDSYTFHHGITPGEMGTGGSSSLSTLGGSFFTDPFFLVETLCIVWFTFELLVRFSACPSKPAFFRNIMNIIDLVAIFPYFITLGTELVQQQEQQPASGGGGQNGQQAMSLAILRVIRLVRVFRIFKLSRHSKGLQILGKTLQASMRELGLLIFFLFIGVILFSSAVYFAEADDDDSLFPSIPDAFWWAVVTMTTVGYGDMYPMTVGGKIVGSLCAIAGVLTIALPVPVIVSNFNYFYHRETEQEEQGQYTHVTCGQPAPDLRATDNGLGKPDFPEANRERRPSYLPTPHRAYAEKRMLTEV
Kv1.5, sequence (P22460 whole entry): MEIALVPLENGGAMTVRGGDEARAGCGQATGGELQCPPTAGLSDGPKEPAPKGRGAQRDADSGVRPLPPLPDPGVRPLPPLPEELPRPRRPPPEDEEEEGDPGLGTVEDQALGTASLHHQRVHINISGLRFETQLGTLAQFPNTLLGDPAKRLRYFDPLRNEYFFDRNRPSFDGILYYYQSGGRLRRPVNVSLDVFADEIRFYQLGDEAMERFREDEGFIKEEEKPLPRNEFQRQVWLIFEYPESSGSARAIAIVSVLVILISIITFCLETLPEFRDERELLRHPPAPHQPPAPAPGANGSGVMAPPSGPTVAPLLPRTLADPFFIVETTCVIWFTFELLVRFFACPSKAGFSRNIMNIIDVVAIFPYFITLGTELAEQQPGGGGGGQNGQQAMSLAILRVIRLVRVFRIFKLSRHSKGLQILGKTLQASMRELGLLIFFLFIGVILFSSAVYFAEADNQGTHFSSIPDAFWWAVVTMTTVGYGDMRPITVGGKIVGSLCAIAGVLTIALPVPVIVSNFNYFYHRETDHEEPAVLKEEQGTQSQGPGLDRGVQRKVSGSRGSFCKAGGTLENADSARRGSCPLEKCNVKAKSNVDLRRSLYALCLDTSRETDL
T2 sequence (P16390 whole entry): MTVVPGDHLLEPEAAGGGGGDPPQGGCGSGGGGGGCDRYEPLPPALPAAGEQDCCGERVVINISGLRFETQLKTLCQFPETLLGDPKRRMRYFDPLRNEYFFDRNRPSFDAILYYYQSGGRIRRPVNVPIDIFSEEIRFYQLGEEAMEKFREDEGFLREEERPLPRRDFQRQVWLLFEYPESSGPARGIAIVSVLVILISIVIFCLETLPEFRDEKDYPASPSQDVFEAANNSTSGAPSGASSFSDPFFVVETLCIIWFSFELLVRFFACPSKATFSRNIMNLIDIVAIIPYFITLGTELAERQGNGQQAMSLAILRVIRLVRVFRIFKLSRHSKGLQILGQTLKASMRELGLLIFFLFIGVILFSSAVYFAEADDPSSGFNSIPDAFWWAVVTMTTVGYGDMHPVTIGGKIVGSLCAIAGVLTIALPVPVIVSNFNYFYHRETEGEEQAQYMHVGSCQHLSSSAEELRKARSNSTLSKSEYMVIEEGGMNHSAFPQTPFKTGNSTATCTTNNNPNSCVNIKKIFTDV

Turning to `O=c1cc(-c2ccc(O)c(O)c2)oc2cc(O)cc(O)c12` [Luteolin], the “selectivity for Kv1.3 over Kv1.1” value at Kv1.1 is reported as “no selectivity”. Moreover, in the assay on Kv1.2 [1], the “selectivity for Kv1.3 over Kv1.2” value was “no selectivity”. The “selectivity for Kv1.3 over Kv1.5” value at Kv1.5 is reported as “no selectivity”.

Regarding `CC[C@H](C)[C@H](NC(=O)[C@@H](N)[C@@H](C)O)C(=O)N[C@H](C(=O)N[C@@H](CC(N)=O)C(=O)N[C@H](C(=O)N[C@@H](CCCCN)C(=O)N[C@H]1CSSC[C@@H]2NC(=O)[C@H](CCCCN)NC(=O)[C@H](C)NC(=O)CNC(=O)[C@H](C)NC(=O)[C@H](CO)NC(=O)[C@H](CCC(N)=O)NC(=O)CNC(=O)[C@H](Cc3ccccc3)NC(=O)[C@H](CCC(N)=O)NC(=O)[C@H](C)NC(=O)[C@H](CCCCN)NC(=O)[C@@H]3CSSC[C@@H](C(=O)N[C@@H](Cc4ccc(O)cc4)C(=O)N4CCC[C@H]4C(=O)N[C@@H](Cc4c[nH]cn4)C(=O)O)NC(=O)[C@H](CCCCN)NC(=O)[C@H](CSSC[C@H](NC(=O)[C@H](CCC(N)=O)NC(=O)[C@H](CCCCN)NC(=O)[C@@H]4CCCN4C(=O)[C@H](CO)NC(=O)[C@H]([C@@H](C)O)NC1=O)C(=O)N[C@@H](CC(C)C)C(=O)N1CCC[C@H]1C(=O)N1CCC[C@H]1C(=O)N3)NC(=O)[C@H](CCCCN)NC(=O)CNC(=O)[C@H](CC(N)=O)NC(=O)[C@H](CCSC)NC2=O)C(C)C)[C@@H](C)CC` [Margatoxin] (H-TIINVKCTSPKQCLPPCKAQFGQSAGAKCMNGKCKCYPH-OH; disulfide 7-29, 13-34, 17-36; N-terminus and C-terminus assumed), the Kd (in general, the concentration at which binding is half-saturated) on Kv1.3 was 0.11 ± 0.012 nM; at Kv1.1 it was 10 ± 1 nM; at Kv1.2 [2] it was 0.52 ± 0.001 nM; on Kv1.6, more than 100 nM; at Kv3.2 it was more than 100 nM. In addition, on Kv1.1, the “selectivity for Kv1.3 over Kv1.1” value is listed as 9 fold. Also, the “selectivity for Kv1.3 over Kv1.2” value with Kv1.2 [1] is recorded as 5 fold. Further, the “selectivity for Kv1.3 over Kv1.6” value on Kv1.6 is more than 1000 fold. In addition, the “selectivity for Kv1.3 over Kv3.2” value in the assay with Kv3.2 is more than 1000 fold.
